Results published in ChEMBL document CHEMBL3868596, “A new target for Parkinson's disease: Small molecule SERCA activator CDN1163 ameliorates dyskinesia in 6-OHDA-lesioned rats” (Bioorg Med Chem, 2017).
The source made the active and inactive calls. The rule behind the calls is not given here.

Tests used:
Rattus norvegicus [1] = assay: Antiakinetic activity in 6-OHDA induced unilaterally lesioned Wistar rat Parkinson's disease model assessed as assessed as increase in double contacts compound administered ip, qd for 5 days prior to 6-OHDA-challenge measured on day 11 post 1.5 hr of last dosage by cylinder test; format: functional
[2] = Tmax in mouse at 2 mg/kg, po or 1 mg/kg, iv; format: ADME, organism-based; details: in vivo
[3] = Metabolic stability in human liver microsomes measured after 1 hr; format: ADME; details: read-out: Stability
[4] = Metabolic stability in mouse plasma measured after 1 hr; format: ADME, cell-free; details: read-out: Stability
Rattus norvegicus [5] = assay: (§1) Antiakinetic activity in 6-OHDA induced unilaterally lesioned Wistar rat Parkinson's disease model assessed as restoration of 6-OHDA-induced decrease in number of adjusting steps in contralateral forelimb at 10 mg/kg, ip qd administered 5 days prior to 6-OHDA-challenge measured on day 11 post 1 hr of last dosage; format: functional, organism-based
[6] = Cmax in mouse at 2 mg/kg, po or 1 mg/kg, iv; format: ADME, organism-based; details: in vivo
HeLa = assay: Activation of SERCA in human HeLa cells expressing YFP/CFP fused cameleon assessed as reduction in thapsigargin-induced decrease in endoplasmic reticulum calcium level by inverted wide-field fluorescence microscopy; format: cell-based
[7] = Permeability of the compound by PAMPA; format: ADME
[8] = Cytoprotection against thapsigargin-induced ER-stress in rat CSM14.1 cells assessed as cell viability at 15 ug/ml preincubated for 2 hrs followed by thapsigargin addition measured after 20 hrs by ATPlite assay relative to thapsigargin treated control; format: functional; details: read-out: Activity
[9] = AUC in mouse at 2 mg/kg, po or 1 mg/kg, iv; format: ADME, organism-based; details: in vivo
Homo sapiens = organism: Homo sapiens; assay: Activation of SERCA (unknown origin)
Rattus norvegicus [10] = assay: (§2) Antiakinetic activity in 6-OHDA induced unilaterally lesioned Wistar rat Parkinson's disease model assessed as reduction in 6-OHDA-induced increase in initiation time to move towards plane surface at 10 mg/kg, ip qd administered 5 days prior to 6-OHDA-challenge measured 1 hr post compound treatment on day 11 relative to non-lesioned control; format: functional, organism-based
Rattus norvegicus [11] = organism: Rattus norvegicus; assay: Cytoprotection against thapsigargin-induced ER-stress in rat CSM14.1 cells assessed as increase in cell viability preincubated for 2 hrs followed by thapsigargin addition measured after 20 hrs by ATPlite assay relative to thapsigargin treated control; format: functional, cell-based
[12] = Ratio of drug level in mouse brain to plasma at 10 mg/kg, ip measured after 1 hr; format: ADME, organism-based; details: read-out: BPR
Rattus norvegicus [13] = assay: as §2, with “administered” for “at 10 mg/kg,”, “for” for “administered”; format: functional, organism-based
Rattus norvegicus [14] = assay: Antiakinetic activity in 6-OHDA induced unilaterally lesioned Wistar rat Parkinson's disease model assessed as increase in double contacts at 10 mg/kg, ip qd administered 5 days prior to 6-OHDA-challenge measured on day 11 post 1.5 hr of last dosage by cylinder test; format: functional, organism-based
Rattus norvegicus [15] = assay: as §1, with “administered” for “at 10 mg/kg,”, “for” for “administered”; format: functional, organism-based

For Cc1ccc2cccc(NC(=O)c3ccc(OC(C)C)cc3)c2n1, the Activity (Rattus norvegicus [1]) was “Active”, the Tmax [2] was 40.2 min and the remaining at 1 h [3] was 58%. The remaining at 1 h [4] was 94%, the Activity (Rattus norvegicus [5]) was “Active” and the Cmax [6] was 260 nM. For the same molecule, the Activity (HeLa) was “Active”, the permeability [7] was “Permeable” and the viability at 15 µg/mL [8] was 100%. The AUC [9] was 0.41 µM·h, the Activity (Homo sapiens) was “Active” and the Activity (Rattus norvegicus [10]) was “Active”. The Activity (Rattus norvegicus [11]) was “Dose-dependent effect” and the Kp at 1 h [12] was 2.83 to 3.

In the case of N[C@@H](Cc1ccc(O)c(O)c1)C(=O)O, the Activity (Rattus norvegicus [13]) is reported as “Active”, the Activity (Rattus norvegicus [14]) is reported as “Active” and the Activity (Rattus norvegicus [15]) is reported as “Active”.
